MIC data for four compounds are collected here from ChEMBL document CHEMBL3046063, “Synthesis and antimicrobial activity of 5-chloroindoline-2,3-dione derivatives” (2012).

The structures appear in SMILES notation. In brackets after ≈: the same amount, converted by molar mass.

Holding throughout (type): functional
The test system of one test is Staphylococcus aureus. Nature of the test: Antimicrobial activity against Staphylococcus aureus ATCC 25923 after 24 hr by broth dilution method. Conditions: ATCC 25923, 24 h. Background: In broth dilution the organism is exposed to a series of concentrations in liquid medium.
In another test the test system is Escherichia coli. Nature of the test: Antimicrobial activity against Escherichia coli ATCC 25922 after 24 hr by broth dilution method. The note with it: ATCC 25922, 24 h.
Another test concerns Aspergillus fumigatus. Nature of the test: Antimicrobial activity against Aspergillus fumigatus after 24 hr by broth dilution method.
For another test, the system named is Fusarium solani. The test is described as follows: Antimicrobial activity against Fusarium solani ATCC 38136 after 24 hr by broth dilution method. Conditions: ATCC 38136, 24 h.
The subject of another test is Bacillus cereus. Nature of the test: Antimicrobial activity against Bacillus cereus ATCC 11778 after 24 hr by broth dilution method. The note with it: ATCC 11778, 24 h.
A further test has as its system Aspergillus awamori. Nature of the test: Antimicrobial activity against Aspergillus awamori ATCC 22342 after 24 hr by broth dilution method. The note with it: ATCC 22342, 24 h.
The test system of a further test is Proteus mirabilis. Nature of the test: Antimicrobial activity against Proteus mirabilis ATCC 49565 after 24 hr by broth dilution method. The note with it: ATCC 49565, 24 h.
The next test deals with Bacillus pumilus. The test is described as follows: Antimicrobial activity against Bacillus pumilus ATCC 14884 after 24 hr by broth dilution method. Conditions: ATCC 14884, 24 h.
The test system of the next test is Staphylococcus hominis. The test is described as follows: Antimicrobial activity against Staphylococcus hominis ATCC 27844 after 24 hr by broth dilution method. Conditions: ATCC 27844, 24 h.
The next test has as its system Micrococcus luteus. Nature of the test: Antimicrobial activity against Micrococcus luteus ATCC 4698 after 24 hr by broth dilution method. The note with it: ATCC 4698, 24 h.
The subject of another test is Microsporum canis. The test is described as follows: Antimicrobial activity against Arthroderma otae ATCC 11622 after 24 hr by broth dilution method. Conditions: ATCC 11622, 24 h.
Another test concerns Aspergillus flavus. The test is described as follows: Antimicrobial activity against Aspergillus flavus ATCC 15517 after 24 hr by broth dilution method. Conditions: ATCC 15517, 24 h.
Test [1] concerns Staphylococcus epidermidis. The test is described as follows: Antimicrobial activity against Staphylococcus epidermidis ATCC 12228 after 24 hr by broth dilution method. The note with it: ATCC 12228, 24 h.
The next test concerns Trichophyton longifusum. Nature of the test: Antimicrobial activity against Trichophyton longifusum ATCC 22397 after 24 hr by broth dilution method. Conditions: ATCC 22397, 24 h.
For another test, the system named is Aspergillus niger. Nature of the test: Antimicrobial activity against Aspergillus niger ATCC 9142 after 24 hr by broth dilution method. Conditions: ATCC 9142, 24 h.
The test system of a further test is Bacillus spizizenii. The test is described as follows: Antimicrobial activity against Bacillus subtilis subsp. spizizenii ATCC 6633 after 24 hr by broth dilution method. Conditions: ATCC 6633, 24 h.
Another test relates to Proteus vulgaris. Nature of the test: Antimicrobial activity against Proteus vulgaris ATCC 13315 after 24 hr by broth dilution method. Conditions: ATCC 13315, 24 h.
The next test relates to Pseudomonas aeruginosa. Nature of the test: Antimicrobial activity against Pseudomonas aeruginosa ATCC 10145 after 24 hr by broth dilution method. Conditions: ATCC 10145, 24 h.
The subject of another test is Klebsiella pneumoniae. The test is described as follows: Antimicrobial activity against Klebsiella pneumoniae ATCC 13883 after 24 hr by broth dilution method. Conditions: ATCC 13883, 24 h.
The subject of the next test is Alternaria alternata. The test is described as follows: Antimicrobial activity against Alternaria alternata ATCC 66868 after 24 hr by broth dilution method. The note with it: ATCC 66868, 24 h.
The subject of the next test is Salmonella typhi. The test is described as follows: Antimicrobial activity against Salmonella enterica subsp. enterica serovar Typhi ATCC 19430 after 24 hr by broth dilution method. The note with it: ATCC 19430, 24 h.
The subject of a further test is Rhizoctonia solani. Nature of the test: Antimicrobial activity against Rhizoctonia solani ATCC 76131 after 24 hr by broth dilution method. Conditions: ATCC 76131, 24 h.
A further test has as its system Candida albicans. Nature of the test: Antimicrobial activity against Candida albicans ATCC 10231 after 24 hr by broth dilution method. The note with it: ATCC 10231, 24 h.
For a further test, the system named is Trichoderma viride. The test is described as follows: Antimicrobial activity against Hypocrea rufa ATCC 52440 after 24 hr by broth dilution method. The note with it: ATCC 52440, 24 h.

As to `COc1ccc(C2SCC(=O)N2/N=C2\C(=O)Nc3ccc(Cl)cc32)cc1` (stereo unspecified), the MIC turned out to be 18.8 µg/mL (≈ 48.3 µM) in the test with Staphylococcus aureus; 18.8 µg/mL (≈ 48.3 µM) in the test on Escherichia coli; 4.68 µg/mL (≈ 12.1 µM) against Aspergillus fumigatus; 4.68 µg/mL (≈ 12.1 µM) in the test with Fusarium solani; 18.8 µg/mL (≈ 48.3 µM) in the test on Bacillus cereus; 4.68 µg/mL (≈ 12.1 µM) against Aspergillus awamori. The MIC against Proteus mirabilis was 9.37 µg/mL (≈ 24.2 µM); in the test on Bacillus pumilus, 18.8 µg/mL (≈ 48.3 µM); against Staphylococcus hominis, 18.8 µg/mL (≈ 48.3 µM); in the test on Micrococcus luteus it was 18.8 µg/mL (≈ 48.3 µM); against Microsporum canis, 9.37 µg/mL (≈ 24.2 µM); with Aspergillus flavus, 9.37 µg/mL (≈ 24.2 µM). The MIC in [1] was found to be 9.37 µg/mL (≈ 24.2 µM); against Trichophyton longifusum, 4.68 µg/mL (≈ 12.1 µM); with Aspergillus niger, 4.68 µg/mL (≈ 12.1 µM); with Bacillus spizizenii it was 9.37 µg/mL (≈ 24.2 µM); against Proteus vulgaris it was 37.5 µg/mL (≈ 96.7 µM); in the test with Pseudomonas aeruginosa it was 18.8 µg/mL (≈ 48.3 µM). Besides, the MIC against Klebsiella pneumoniae worked out at 9.37 µg/mL (≈ 24.2 µM); against Alternaria alternata, 9.37 µg/mL (≈ 24.2 µM); with Salmonella typhi, 9.37 µg/mL (≈ 24.2 µM); in the test on Rhizoctonia solani, 9.37 µg/mL (≈ 24.2 µM); with Candida albicans, 4.68 µg/mL (≈ 12.1 µM); in the test with Trichoderma viride, 4.68 µg/mL (≈ 12.1 µM).

On to `O=C1Nc2ccc(Cl)cc2/C1=N/N1C(=O)CSC1c1ccc(F)cc1` (stereo unspecified), for which the MIC against Staphylococcus aureus came to 18.8 µg/mL (≈ 49.9 µM); with Escherichia coli, 18.8 µg/mL (≈ 49.9 µM); against Aspergillus fumigatus, 4.68 µg/mL (≈ 12.5 µM); in the test on Fusarium solani it was 4.68 µg/mL (≈ 12.5 µM); in the test with Bacillus cereus it was 9.37 µg/mL (≈ 24.9 µM); in the test with Aspergillus awamori, 9.37 µg/mL (≈ 24.9 µM). The MIC against Proteus mirabilis amounted to 18.8 µg/mL (≈ 49.9 µM); against Bacillus pumilus, 9.37 µg/mL (≈ 24.9 µM); with Staphylococcus hominis it was 9.37 µg/mL (≈ 24.9 µM); with Micrococcus luteus it was 18.8 µg/mL (≈ 49.9 µM); in the test with Microsporum canis, 9.37 µg/mL (≈ 24.9 µM); against Aspergillus flavus it was 9.37 µg/mL (≈ 24.9 µM). For the same compound, the MIC in test [1] was found to be 9.37 µg/mL (≈ 24.9 µM); with Trichophyton longifusum, 4.68 µg/mL (≈ 12.5 µM); against Aspergillus niger, 9.37 µg/mL (≈ 24.9 µM); against Bacillus spizizenii it was 18.8 µg/mL (≈ 49.9 µM); against Proteus vulgaris, 18.8 µg/mL (≈ 49.9 µM); in the test with Pseudomonas aeruginosa, 9.37 µg/mL (≈ 24.9 µM). Besides, the MIC against Klebsiella pneumoniae was determined as 18.8 µg/mL (≈ 49.9 µM); with Alternaria alternata, 9.37 µg/mL (≈ 24.9 µM); in the test with Salmonella typhi it was 9.37 µg/mL (≈ 24.9 µM); in the test on Rhizoctonia solani it was 4.68 µg/mL (≈ 12.5 µM); against Candida albicans, 9.37 µg/mL (≈ 24.9 µM); in the test on Trichoderma viride, 4.68 µg/mL (≈ 12.5 µM).

On to `O=C1Nc2ccc(Cl)cc2/C1=N/N1C(=O)CSC1c1ccc([N+](=O)[O-])cc1` (stereo unspecified), for which the MIC against Staphylococcus aureus turned out to be 9.37 µg/mL (≈ 23.3 µM); in the test on Escherichia coli, 18.8 µg/mL (≈ 46.5 µM); with Aspergillus fumigatus it was 4.68 µg/mL (≈ 11.6 µM); in the test with Fusarium solani it was 9.37 µg/mL (≈ 23.3 µM); with Bacillus cereus, 18.8 µg/mL (≈ 46.5 µM); against Aspergillus awamori, 9.37 µg/mL (≈ 23.3 µM). The MIC with Proteus mirabilis was 18.8 µg/mL (≈ 46.5 µM); in the test with Bacillus pumilus it was 18.8 µg/mL (≈ 46.5 µM); in the test on Staphylococcus hominis, 9.37 µg/mL (≈ 23.3 µM); in the test on Micrococcus luteus, 9.37 µg/mL (≈ 23.3 µM); against Microsporum canis, 4.68 µg/mL (≈ 11.6 µM); in the test with Aspergillus flavus it was 4.68 µg/mL (≈ 11.6 µM). Besides, the MIC in [1] worked out at 18.8 µg/mL (≈ 46.5 µM); with Trichophyton longifusum it was 4.68 µg/mL (≈ 11.6 µM); in the test on Aspergillus niger it was 4.68 µg/mL (≈ 11.6 µM); against Bacillus spizizenii, 37.5 µg/mL (≈ 93.1 µM); in the test on Proteus vulgaris, 37.5 µg/mL (≈ 93.1 µM); against Pseudomonas aeruginosa, 9.37 µg/mL (≈ 23.3 µM). The MIC in the test on Klebsiella pneumoniae was 9.37 µg/mL (≈ 23.3 µM); against Alternaria alternata, 4.68 µg/mL (≈ 11.6 µM); in the test on Salmonella typhi, 18.8 µg/mL (≈ 46.5 µM); against Rhizoctonia solani, 9.37 µg/mL (≈ 23.3 µM); in the test with Candida albicans, 9.37 µg/mL (≈ 23.3 µM); against Trichoderma viride it was 9.37 µg/mL (≈ 23.3 µM).

Regarding `O=C1Nc2ccc(Cl)cc2/C1=N/N1C(=O)CSC1c1ccco1` (stereo unspecified), the MIC against Staphylococcus aureus came to 75 µg/mL (≈ 216 µM); against Escherichia coli, 75 µg/mL (≈ 216 µM); against Aspergillus fumigatus it was 18.8 µg/mL (≈ 53.9 µM); in the test with Fusarium solani, 37.5 µg/mL (≈ 108 µM); in the test on Bacillus cereus it was 75 µg/mL (≈ 216 µM); with Aspergillus awamori, 37.5 µg/mL (≈ 108 µM). Also, the MIC against Proteus mirabilis came out at 75 µg/mL (≈ 216 µM); in the test on Bacillus pumilus it was 37.5 µg/mL (≈ 108 µM); in the test with Staphylococcus hominis, 37.5 µg/mL (≈ 108 µM); against Micrococcus luteus it was 75 µg/mL (≈ 216 µM); with Microsporum canis, 37.5 µg/mL (≈ 108 µM); with Aspergillus flavus, 37.5 µg/mL (≈ 108 µM). Besides, the MIC was found to be 75 µg/mL (≈ 216 µM) in test [1]; 18.8 µg/mL (≈ 53.9 µM) in the test with Trichophyton longifusum; 37.5 µg/mL (≈ 108 µM) against Aspergillus niger; 37.5 µg/mL (≈ 108 µM) in the test with Bacillus spizizenii; 75 µg/mL (≈ 216 µM) in the test with Proteus vulgaris; 75 µg/mL (≈ 216 µM) against Pseudomonas aeruginosa. Also, the MIC amounted to 75 µg/mL (≈ 216 µM) against Klebsiella pneumoniae; 37.5 µg/mL (≈ 108 µM) in the test on Alternaria alternata; 37.5 µg/mL (≈ 108 µM) against Salmonella typhi; 18.8 µg/mL (≈ 53.9 µM) with Rhizoctonia solani; 18.8 µg/mL (≈ 53.9 µM) in the test on Candida albicans; 37.5 µg/mL (≈ 108 µM) in the test on Trichoderma viride.

In general, MIC refers to the lowest concentration found to suppress growth. High values mean a need for much substance, low ones inhibition by little substance.
